Measured values: ChEMBL document CHEMBL1201862, “PubChem BioAssay data set” (2004)
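Assay format: 96-well plates, 48-hour exposure. Here, GI50 denotes the concentration required for 50% inhibition of growth.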 Activity calls are given as the source filed them. Rule as the data show it: active = GI50 up to about 1.1 µM and inactive = higher.

How the values were obtained:
Assay in all cases: NCI-60 cell line screen, 48 h
NCI-H460 = test system: NCI-H460
786-0 = test system: 786-0
LOX IMVI = test system: LOX IMVI
DMS-273 = test system: DMS-273
IGROV-1 = test system: IGROV-1
COLO 205 = test system: COLO 205
UACC-62 = test system: UACC-62
HCT-15 = test system: HCT-15
SK-MEL-28 = test system: SK-MEL-28
Malme-3M = test system: Malme-3M
A549 = test system: A549
HCT-116 = test system: HCT-116
UO-31 = test system: UO-31
HCC 2998 = test system: HCC 2998
NCI-H23 = test system: NCI-H23
HT-29 = test system: HT-29
TK-10 = test system: TK-10
CAKI-1 = test system: CAKI-1
EKVX = test system: EKVX
SK-OV-3 = test system: SK-OV-3
SNB-78 = test system: SNB-78
OVCAR-3 = test system: OVCAR-3
RXF 393 = test system: RXF 393
HL-60 = test system: HL-60
NCI-H522 = test system: NCI-H522
RPMI-8226 = test system: RPMI-8226
OVCAR-5 = test system: OVCAR-5
HOP-92 = test system: HOP-92
SF-295 = test system: SF-295
OVCAR-4 = test system: OVCAR-4
UACC-257 = test system: UACC-257
SN12C = test system: SN12C
M19-MEL = test system: M19-MEL
A498 = test system: A498
KM-20L2 = test system: KM-20L2
OVCAR-8 = test system: OVCAR-8
HOP-62 = test system: HOP-62
DMS-114 = test system: DMS-114
K562 = test system: K562
CCRF-CEM = test system: CCRF-CEM
SNB-75 = test system: SNB-75
ACHN = test system: ACHN
SK-MEL-2 = test system: SK-MEL-2
M14 = test system: M14
RXF 631 = test system: RXF 631
SNB-19 = test system: SNB-19
U-251 = test system: U-251
NCI-H226 = test system: NCI-H226
SF-539 = test system: SF-539
SF-268 = test system: SF-268
SW-620 = test system: SW-620
SK-MEL-5 = test system: SK-MEL-5
LXFL 529 = test system: LXFL 529
MOLT-4 = test system: MOLT-4
KM12 = test system: KM12
XF498 = test system: XF498
MCF7 = test system: MCF7
NCI/ADR-RES = test system: NCI/ADR-RES
DLD-1 = test system: DLD-1
HOP-18 = test system: HOP-18
SR = test system: SR

Measured: GI50

Cc1c(C(=O)CC(=O)C(=O)Nc2ccc(Cl)c(Cl)c2)[n+]([O-])c2ccccc2[n+]1[O-]
20.5 µM: HCT-15
inactive: NCI-H460 24.7 µM | 786-0 25.8 µM | LOX IMVI 21.1 µM | DMS-273 26 µM | IGROV-1 18.7 µM | COLO 205 19.4 µM | UACC-62 17.3 µM | SK-MEL-28 37.9 µM | Malme-3M 18.8 µM | A549 27 µM | HCT-116 19 µM | UO-31 55.1 µM | HCC 2998 33 µM | NCI-H23 28.6 µM | HT-29 29.9 µM | TK-10 46.5 µM | CAKI-1 51.9 µM | EKVX 12.5 µM | SK-OV-3 41.6 µM | SNB-78 48.9 µM | OVCAR-3 2.42 µM | RXF 393 27.4 µM | HL-60 17.8 µM | NCI-H522 18.9 µM | RPMI-8226 20.8 µM | OVCAR-5 36.4 µM | HOP-92 27.5 µM | SF-295 41.7 µM | OVCAR-4 15.2 µM | UACC-257 17.5 µM | SN12C 23.8 µM | M19-MEL 15.7 µM | A498 > 100 µM | KM-20L2 52.5 µM | OVCAR-8 17.2 µM | HOP-62 64.4 µM | DMS-114 16.9 µM | K562 23.8 µM | CCRF-CEM 17.2 µM | SNB-75 18.9 µM | ACHN 20.3 µM | SK-MEL-2 26.9 µM | M14 18.1 µM | RXF 631 22.5 µM | SNB-19 27 µM | U-251 26.8 µM | NCI-H226 > 100 µM | SF-539 26.9 µM | SF-268 29.1 µM | SW-620 25.1 µM | SK-MEL-5 19.5 µM | LXFL 529 16.3 µM | MOLT-4 20.8 µM | KM12 25.1 µM

S=P1(Sc2ccccc2)Oc2ccc3ccccc3c2-c2c(ccc3ccccc23)O1
> 80.4 µM: HCT-15
inactive: NCI-H460 > 100 µM | LOX IMVI > 79.6 µM | DMS-273 > 100 µM | IGROV-1 > 100 µM | COLO 205 > 100 µM | UACC-62 > 100 µM | XF498 > 100 µM | MCF7 71.8 µM | SK-MEL-28 > 78.5 µM | Malme-3M > 100 µM | A549 > 100 µM | HCT-116 > 100 µM | UO-31 > 100 µM | HCC 2998 > 100 µM | NCI-H23 > 100 µM | HT-29 51.5 µM | CAKI-1 > 83.9 µM | EKVX > 100 µM | SK-OV-3 > 100 µM | SNB-78 > 100 µM | OVCAR-3 70 µM | RXF 393 > 83 µM | HL-60 > 77.4 µM | NCI-H522 49.9 µM | RPMI-8226 > 100 µM | OVCAR-5 > 100 µM | HOP-92 > 100 µM | SF-295 > 100 µM | OVCAR-4 > 100 µM | UACC-257 > 100 µM | SN12C > 100 µM | M19-MEL > 100 µM | A498 > 84.7 µM | NCI/ADR-RES > 100 µM | KM-20L2 67.1 µM | OVCAR-8 > 100 µM | HOP-62 > 100 µM | DMS-114 > 58.6 µM | K562 80.7 µM | CCRF-CEM > 100 µM | SNB-75 > 100 µM | DLD-1 > 100 µM | SK-MEL-2 > 100 µM | SNB-19 > 100 µM | U-251 > 95.5 µM | NCI-H226 > 100 µM | SF-539 > 100 µM | SF-268 > 100 µM | SW-620 > 100 µM | SK-MEL-5 > 100 µM | MOLT-4 > 82.6 µM | HOP-18 > 92.5 µM | KM12 > 100 µM

Cc1ncc(CCl)c(CCl)c1O
inactive: 786-0 > 100 µM | DMS-273 > 100 µM | IGROV-1 > 100 µM | COLO 205 > 100 µM | UACC-62 > 100 µM | XF498 > 100 µM | SK-MEL-28 > 100 µM | Malme-3M > 100 µM | HCT-116 > 100 µM | UO-31 > 100 µM | HCC 2998 > 100 µM | NCI-H23 > 100 µM | CAKI-1 > 100 µM | SR > 100 µM | SK-OV-3 > 100 µM | HL-60 > 100 µM | NCI-H522 > 100 µM | RPMI-8226 > 100 µM | HOP-92 > 100 µM | OVCAR-4 > 100 µM | SN12C > 100 µM | M19-MEL > 100 µM | A498 > 100 µM | HOP-62 > 100 µM | DMS-114 > 100 µM | K562 > 100 µM | CCRF-CEM > 100 µM | SNB-75 > 100 µM | ACHN > 100 µM | DLD-1 > 100 µM | SK-MEL-2 > 100 µM | M14 > 100 µM | RXF 631 > 100 µM | NCI-H226 > 100 µM | SF-539 > 100 µM | SF-268 > 100 µM | LXFL 529 > 100 µM | MOLT-4 > 100 µM
